Test system: T-Jurkat cells
Test: XTT cytotoxicity test on T-Jurkat cell line
Assay type: cell-based, human
Settings: for IC50: Homo sapiens, T-Jurkat, 48 h, viability, mean ± SD, read-out: Relative IC50 T-Jurkat (XTT); for IS internal selectivity (IC50 PBMCs / IC50 T-Jurkat): ratio between XTT IC50 values for PBMCs and T-Jurkat cell line
Description: Table 3 presents the IC50 values obtained from the XTT test on PBMCs and the T-Jurkat cell line, using MPA and MMF as standards. These values indicate the concentration of each compound required to reduce the viability of PBMCs (healthy cells) and T-Jurkat cells (T-cell leukemia) by 50% compared to the control. Cells were treated with compounds for 72 h (PBMCs) or 48 h (T-Jurkat), followed by a colorimetric XTT test. The results are illustrated in ESI Fig. S2 as a viability curve in relation to concentration.
Biological evaluation — PBMC and T-Jurkat cells
The T-Jurkat cell line (Clone E6-1, ATCC TIB-152), derived from a human acute T-cell leukemia, was obtained from the cell bank of the Department of Medical Immunology at the Medical University of Gdańsk. Before experimentation, the cells were thawed and cultured for about 7 days to reach the logarithmic phase of growth. The T-Jurkat cell line was suspended in a complete RPMI medium, which included RPMI-1640, 10% FBS, penicillin (100 U/ml), and streptomycin ([…]).
Human peripheral blood mononuclear cells (PBMCs) were isolated from buffy coats provided by anonymous, healthy volunteers with an average age of 35±4 years during routine transfusion procedure. These samples were received by the Authors from the Regional Centre for Blood Donation and Treatment in Gdańsk (Poland). […]
solely for PBMCs isolation. PBMCs were suspended in a complete X-VIVO medium, consisting of X-VIVO20, 10% heat-inactivated human AB serum, penicillin (100 U/ml), and streptomycin ([…]).
MPA derivatives preparation
To achieve the desired concentrations of the tested compounds, the substances were first dissolved in DMSO to reach a final concentration of 0.01 M. The solutions were then diluted in the appropriate additive-free medium (RPMI-1640 for T-Jurkat cells and X-VIVO20 for PBMCs) to obtain […]
Peripheral blood mononuclear cells were isolated by gradient centrifugation, as described previously. Buffy coats were diluted with phosphate-buffered saline (PBS, pH = 7.4, ThermoFisher Scientific) in a 1:1 ratio, layered at Ficoll-Paque™ PLUS (VWR International), and centrifuged at 800 × g for 20 minutes. The PBMC layer was collected and washed twice with PBS (1st wash: 600 × g for 10 minutes; 2nd wash: 600 × g for 5 minutes). Cell amount and viability were assessed using the Bio-Rad TC20™ automated cell counter combined with trypan blue staining.
XTT dye-based in vitro cytotoxicity test
The cytotoxic effects of mycophenolic acid (MPA) derivatives were assessed using an in vitro XTT-based assay (Roche). PBMCs in complete X-VIVO20 medium and T-Jurkat cells in complete RPMI-1640 medium were seeded into 96-well plates at a concentration of 5∙10^5 cells/50 µl per well. 50 µl of tested compounds were added to the experimental wells to achieve final concentrations of 50, 25, 10, 5, 1, 0.1, and 0.01 µM. The background control consisted of the medium without cells, while untreated cells served as the positive control. After incubating for 48 hours for T-Jurkat cells and 96 hours for PBMCs in a humidified atmosphere with 5% CO2 at 37°C, 50 µl of freshly prepared XTT reagent was added to all wells according to the manufacturer's instructions. The plates were then incubated for an additional 24 hours under the same conditions. The conversion of the water-soluble yellow XTT tetrazolium salt to orange formazan was quantified by measuring the optical density (OD) at 450 nm using an Agilent BioTek Epoch Microplate Spectrophotometer (Agilent Technologies), with a reference wavelength of 690 nm. The results were expressed as IC50 values for compounds that […]
inhibited cell viability by more than 50%. […]
PBMCs were suspended in a 15 mL centrifuge tube at a concentration of 10-30 × 10⁶ cells in 1 mL of PBS, then, 2 μL of 1 mM VPD 450 dye solution was added, incubated for 15 min at 37°C, washed with a 9-fold volume of warm PBS and centrifuged at 400 x g for 5 min. Then, the cells were suspended […]

| SMILES | IC50 [nM] | IS internal selectivity (IC50 PBMCs / IC50 T-Jurkat) |
| --- | --- | --- |
| COc1c(C)c2c(c(O)c1C/C=C(\C)CCC(=O)OCCN1CCOCC1)C(=O)OC2 [MMF, mycophenolate mofetil, reference compound] | 740 ± 34 | 22.456 |
| COc1ccccc1OC(=O)CC/C(C)=C/Cc1c(O)c2c(c(C)c1OC)COC2=O [MP1] | 982 ± 5 | 15.051 |
| COc1cccc(OC)c1OC(=O)CC/C(C)=C/Cc1c(O)c2c(c(C)c1OC)COC2=O [MP2] | 1748 ± 6 | 12.883 |
| COc1cc(C=O)cc(OC)c1OC(=O)CC/C(C)=C/Cc1c(O)c2c(c(C)c1OC)COC2=O [MP3] | 4443 ± 7 | 2.383 |
| COc1cc(C=O)ccc1OC(=O)CC/C(C)=C/Cc1c(O)c2c(c(C)c1OC)COC2=O [MP4] | 5330 ± 5 | 4.406 |
| COC(=O)/C=C/c1ccc(OC(=O)CC/C(C)=C/Cc2c(O)c3c(c(C)c2OC)COC3=O)c(OC)c1 [MP7] | 1406 ± 4 | 21.645 |
| C=CCc1ccc(OC(=O)CC/C(C)=C/Cc2c(O)c3c(c(C)c2OC)COC3=O)c(OC)c1 [MP8] | 1705 ± 2 | 10.429 |
| C/C=C/c1ccc(OC(=O)CC/C(C)=C/Cc2c(O)c3c(c(C)c2OC)COC3=O)c(OC)c1 [MP9] | 1964 ± 2 | 10.770 |
| COc1c(C)c2c(c(O)c1C/C=C(\C)CCC(=O)O)C(=O)OC2 [MPA, Mycophenolic acid] | 527 ± 40 | 35.558 |
| COc1c(C)c2c(c(O)c1C/C=C(\C)CCC(=O)Oc1ccc3c(c1)OCO3)C(=O)OC2 [P1] | 1073 ± 2 | 116.938 |
| COc1c(C)c2c(c(O)c1C/C=C(\C)CCC(=O)Oc1cc(C)ccc1C(C)C)C(=O)OC2 [P2] | 2473 ± 4 | 6.611 |
| COC(=O)/C=C/c1ccccc1OC(=O)CC/C(C)=C/Cc1c(O)c2c(c(C)c1OC)COC2=O [P4] | 1658 ± 3 | 15.613 |
| COc1c(C)c2c(c(O)c1C/C=C(\C)CCC(=O)Oc1ccc(C=O)cc1)C(=O)OC2 [P5] | 1582 ± 3 | 6.288 |
| COc1c(C)c2c(c(O)c1C/C=C(\C)CCC(=O)Oc1ccc(CCC(C)=O)cc1)C(=O)OC2 [P7] | 2410 ± 2 | 20.869 |

Reference: publication PMC12271471, “Direct synthesis of mycophenolic acid aryl esters with antioxidant and antiproliferative properties” (Scientific Reports, 2025)
